Data on three compounds can be found in ChEMBL document CHEMBL3886674, “Aminopyrimidine derivatives for use as modulators of kinase activity” (2016).

Ribosomal protein S6 kinase beta-1, sequence (P23443 whole entry T412E): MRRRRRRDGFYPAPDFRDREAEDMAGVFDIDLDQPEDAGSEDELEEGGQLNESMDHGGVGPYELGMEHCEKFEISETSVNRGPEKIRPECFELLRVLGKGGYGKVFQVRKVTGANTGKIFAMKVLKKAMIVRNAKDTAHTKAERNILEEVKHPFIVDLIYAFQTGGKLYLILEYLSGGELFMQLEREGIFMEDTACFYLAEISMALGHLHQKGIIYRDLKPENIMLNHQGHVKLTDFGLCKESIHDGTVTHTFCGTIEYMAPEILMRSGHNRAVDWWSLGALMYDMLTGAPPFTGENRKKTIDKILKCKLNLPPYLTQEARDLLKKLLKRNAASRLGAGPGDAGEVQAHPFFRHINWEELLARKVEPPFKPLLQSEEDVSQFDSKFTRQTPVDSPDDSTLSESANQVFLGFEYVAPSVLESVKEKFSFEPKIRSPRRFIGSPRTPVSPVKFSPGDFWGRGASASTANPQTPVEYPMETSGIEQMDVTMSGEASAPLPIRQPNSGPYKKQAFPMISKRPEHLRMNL

The test concerns the target Ribosomal protein S6 kinase beta-1 (Homo sapiens, UniProt P23443, T412E). Description: Enzyme Assay: P70S6K inhibitor compounds were diluted and plated in 96 well plates. A reaction mixture including the following components was then added to the compound plate to initiate the enzyme reaction; P70S6K (3 nM, T412E mutant, Millipore) was mixed with 24 μM ATP in an assay buffer containing 100 mM Hepes (pH 7.5), 5 mM MgCl2, 1 mM DTT, 0.015% Brij and 1 μM of the substrate peptide FITC-AHA-AKRRRLSSLRA-OH (derived from the S6 ribosomal protein sequence, FITC=fluorescein isothiocyanate, AHA=6-aminohexanoic acid). The reaction was incubated for 90 min at 25° C., before the addition of 10 mM EDTA to stop the reaction.
As usually defined, the IC50 is the concentration at which inhibition is half-maximal. As for `Nc1ncnc(N2CCC(C(N)c3ccc(Cl)cc3)CC2)c1-c1ccc(F)cc1` (stereo not drawn), the IC50 is 13 nM.

`Nc1ncnc(N2CCC(C(N)c3ccc(F)cc3)CC2)c1-c1ccc(F)cc1` (stereo not drawn): the IC50 is 27 nM.

As for `Nc1ncnc(N2CCC(C(N)c3ccc(-c4ccc(F)cc4)cc3)CC2)c1-c1ccc(F)cc1` (stereo not drawn), the IC50 amounted to 17 nM.
